Experimental data reported in PubChem BioAssay (NCI).
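Grown in 96-well plates, cells were treated for 48 hours with each compound at five concentrations. Insufficient inhibition: endpoint recorded as highest concentration tested. Abbreviation: GI50, concentration required for 50% inhibition of growth. Definition used: TGI = concentration required for complete inhibition of growth.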

Tests used:
Assay in all cases: growth of human tumour cells (NCI), 48 h
[1] = system: SF-295 CNS
[2] = system: KM12 colon
[3] = system: RPMI-8226 leukemia
[4] = system: LOX IMVI melanoma
[5] = system: SK-MEL-2 melanoma
[6] = system: OVCAR-8 ovarian
[7] = system: CCRF-CEM leukemia
[8] = system: MDA-MB-435
[9] = system: SR leukemia
[10] = system: IGROV1 ovarian
[11] = system: HCC-2998 colon
[12] = system: HCT-15 colon
[13] = system: BT-549 breast
[14] = system: HS 578T breast
[15] = system: NCI-H226 lung
[16] = system: NCI-H23 lung
[17] = system: EKVX NSCLC
[18] = system: MCF7 breast
[19] = system: SNB-75 CNS
[20] = system: HCT-116 colon
[21] = system: SNB-19 CNS
[22] = system: NCI-H460 lung
[23] = system: A549 NSCLC
[24] = system: SK-OV-3 ovarian
[25] = system: T-47D breast
[26] = system: SK-MEL-28 melanoma
[27] = system: OVCAR-3 ovarian
[28] = system: HT29 colon
[29] = system: 786-0 renal
[30] = system: MOLT-4 leukemia
[31] = system: HOP-92 NSCLC
[32] = system: RXF 393 renal
[33] = system: DU-145 prostate
[34] = system: MALME-3M melanoma
[35] = system: SW-620 colon
[36] = system: A498 renal
[37] = system: HL-60(TB) leukemia
[38] = system: OVCAR-5 ovarian
[39] = system: ACHN renal
[40] = system: UACC-62 melanoma
[41] = system: TK-10 renal
[42] = system: HOP-62 NSCLC
[43] = system: U251 CNS
[44] = system: SF-268 CNS
[45] = system: PC-3 prostate
[46] = system: NCI/ADR-RES ovarian
[47] = system: OVCAR-4 ovarian
[48] = system: M14 melanoma
[49] = system: UO-31 renal
[50] = system: MDA-MB-231 breast
[51] = system: UACC-257 melanoma
[52] = system: K-562 leukemia
[53] = system: NCI-H522 lung
[54] = system: SK-MEL-5 melanoma
[55] = system: SN12C renal
[56] = system: COLO 205 colon
[57] = system: SF-539 CNS

O=c1ccccc(-c2ccc(Br)cc2)c1O
GI50 [1]: 340 nM
TGI [1]: 16.8 µM
GI50 [2]: 430 nM
TGI [2]: 22.6 µM
GI50 [3]: 401 nM
TGI [3]: 25 µM
GI50 [4]: 323 nM
TGI [4]: 13.8 µM
GI50 [5]: 957 nM
TGI [5]: 25.8 µM
GI50 [6]: 383 nM
TGI [6]: > 100 µM
GI50 [7]: 291 nM
TGI [7]: > 100 µM
GI50 [8]: 386 nM
TGI [8]: > 100 µM
GI50 [9]: 316 nM
TGI [9]: 17.1 µM
GI50 [10]: 432 nM
TGI [10]: > 100 µM
GI50 [11]: 425 nM
TGI [11]: 21.8 µM
GI50 [12]: 256 nM
TGI [12]: 36 µM
GI50 [13]: 795 nM
TGI [13]: 54 µM
GI50 [14]: 4.61 µM
TGI [14]: 83.8 µM
GI50 [15]: 1040 nM
TGI [15]: 16.6 µM
GI50 [16]: 528 nM
TGI [16]: 15.8 µM
GI50 [17]: 343 nM
TGI [17]: 15 µM
GI50 [18]: 311 nM
TGI [18]: 46.8 µM
GI50 [19]: 611 nM
TGI [19]: 27.6 µM
GI50 [20]: 404 nM
TGI [20]: 14.6 µM
GI50 [21]: 459 nM
TGI [21]: > 100 µM
GI50 [22]: 318 nM
TGI [22]: 10.6 µM
GI50 [23]: 322 nM
TGI [23]: 24 µM
GI50 [24]: 428 nM
TGI [24]: 24.1 µM
GI50 [25]: 562 nM
TGI [25]: 41.3 µM
GI50 [26]: 489 nM
TGI [26]: 26.4 µM
GI50 [27]: 412 nM
TGI [27]: 27.6 µM
GI50 [28]: 6.44 µM
TGI [28]: 36.8 µM
GI50 [29]: 408 nM
TGI [29]: 21.7 µM
GI50 [30]: 334 nM
TGI [30]: > 100 µM
GI50 [31]: 6.53 µM
TGI [31]: 34.1 µM
GI50 [32]: 324 nM
TGI [32]: 8.12 µM
GI50 [33]: 595 nM
TGI [33]: 45 µM
GI50 [34]: 2180 nM
TGI [34]: 47.7 µM
GI50 [35]: 410 nM
TGI [35]: 40.5 µM
GI50 [36]: 1210 nM
TGI [36]: 7.68 µM
GI50 [37]: 262 nM
TGI [37]: 718 nM
GI50 [38]: 725 nM
TGI [38]: > 100 µM
GI50 [39]: 367 nM
TGI [39]: 25.1 µM
GI50 [40]: 298 nM
TGI [40]: 1730 nM
GI50 [41]: 541 nM
TGI [41]: 70.7 µM
GI50 [42]: 377 nM
TGI [42]: 15.9 µM
GI50 [43]: 383 nM
TGI [43]: 13.6 µM
GI50 [44]: 420 nM
TGI [44]: > 100 µM
GI50 [45]: 628 nM
TGI [45]: 37.3 µM
GI50 [46]: 289 nM
TGI [46]: 2370 nM
GI50 [47]: 330 nM
TGI [47]: 27.3 µM
GI50 [48]: 316 nM
TGI [48]: 13.1 µM
GI50 [49]: 369 nM
TGI [49]: 20.4 µM
GI50 [50]: 737 nM
TGI [50]: 35.7 µM
GI50 [51]: 230 nM
TGI [51]: 8.76 µM
GI50 [52]: 463 nM
TGI [52]: > 100 µM
GI50 [53]: 461 nM
TGI [53]: 40.9 µM
GI50 [54]: 247 nM
TGI [54]: 701 nM
GI50 [55]: 829 nM
TGI [55]: 16.4 µM
GI50 [56]: 466 nM
TGI [56]: 27 µM
GI50 [57]: 458 nM
TGI [57]: 12.1 µM
